Tested on: IgG-Fc (Fc fragment of IgG preparation derived from human plasma)
Experiment: Biacore 3000 surface plasmon resonance analysis of the affinity of the low-molecular-weight compound for IgG-Fc
Conditions: IgG-Fc immobilized on sensor chip CM5; compound 25 μM to 100 μM in running buffer pH 7.4, 5% DMSO; 25° C.; 1:1 binding model fit
Experimental: An Fc fragment was prepared by fragmenting an IgG preparation derived from human plasma as a raw material into a Fab fragment and an Fc fragment using papain and separating the Fc fragment only to be purified. Gammagard, which is an IgG preparation derived from human plasma and which was manufactured by Baxter, was dissolved into a buffer solution for papain digestion which contained 0.1 M AcOH—AcONa, 2 mM EDTA and 1 mM cysteine and of which pH was 5.5, and Papain Agarose from papaya latex (papain-immobilized agarose, manufactured by SIGMA) was added to the solution. The mixture was mixed using a rotator and incubated at 37° C. for about 8 hours. The reaction mixture, which contained both of a Fab fragment and an Fc fragment, was separated from the papain-immobilized agarose. The Fc fragment was separated to be purified from the reaction mixture by affinity chromatography using Protein A column (MabSelect, manufactured by GE Healthcare Company). Hereinafter, the Fc fragment is referred to as “IgG-Fc”. Specifically, the reaction mixture, which contained both of a Fab fragment and an Fc fragment, was diluted with a phosphate buffer (20 mM NaH2PO4—Na2HPO4, 150 mM NaCl, pH 7.4) so that the pH became about 7.4. The diluted mixture was added to a Protein A column which was equilibrated using a phosphate buffer, and the column was washed with a phosphate buffer. Then, an IgG-Fc solution was obtained by using an eluent buffer B (100 mM citric acid, pH 3.0) to elute the IgG-Fc. The above-described protein purification by chromatography was carried out using AKTAprime plus system manufactured by GE Healthcare Company.
The analysis of the affinity between the low-molecular-weight compound and IgG-Fc was carried out using Biacore 3000, which was manufactured by GE Healthcare Company and in which surface plasmon resonance was utilized, under the following protocol. All of the sensor chip and reagents used in the following protocol were manufactured by GE Healthcare Company. The low-molecular-weight compounds (2) to (17) of which binding properties were evaluated were obtained from Namiki Shoji Co., Ltd.
The IgG-Fc obtained in the Example 1 was diluted 50-fold with a buffer for immobilization (10 mM CH3COOH—CH3COONa, pH 4.5), and the IgG-Fc was immobilized on a sensor chip CM5 in accordance with the protocol provided with Biacore 3000. The immobilization of the IgG-Fc on the sensor chip CM5 was carried out by amine coupling method using N-hydroxysuccinimide (NHS) and N-ethyl-N′-(3-dimethylaminopropyl)carbodiimide hydrochroride (EDC), and ethanolamine was used for blocking. In addition, a reference cell was prepared as a negative control by activating other flow cell on a chip by EDC/NHS and then immobilizing ethanolamine.
A ligand of any one of the low-molecular-weight compounds (2) to (17) was flowed on the above sensor chip to detect an interaction. Specifically, each of the low-molecular-weight compound (2) to (17) to be measured was diluted with a running buffer (20 mM NaH2PO4—Na2HPO4, 150 mM NaCl, 0.005% P-20, 5% DMSO, pH 7.4) to prepared three or four kinds of diluted solutions of which concentrations were different each other within the range of 25 μM to 100 μM with respect to each compound. The prepared solutions of the each low-molecular-weight compound were added to the sensor chip at a flow rate of 30 μL/min for 120 seconds. Binding reaction curves were orderly observed at the time of addition (binding phase, for 120 seconds) and after the addition (dissociation phase, for 120 second) at the measurement temperature of 25° C. After the each observation, 40 mM NaOH was added for 15 seconds to regenerate the sensor chip. A binding reaction curve of a sample containing DMSO was corrected using a Biacore correction tool manufactured by GE Healthcare Company with respect to the obtained binding curves (see FIGS. 1 to 4). […]

| Structure (SMILES) | KA × 10^4 (M^−1), coupling/binding constant KA=Kon/Koff |
| --- | --- |
| Nc1cccc(Oc2cccc(Oc3cccc(N)c3)c2)c1 [(8)] | 0.95 × 10^4 M^−1 |
| O=C1N/C(=C\c2ccc(O)c(Br)c2)C(=O)N1Cc1ccc(Cl)cc1 [(9)] | 0.48 × 10^4 M^−1 |
| O=C(CSc1nnc2sc3ccccc3n12)c1ccc(O)c(O)c1 [(4)] | 5.1 × 10^4 M^−1 |
| O=c1cc(CSc2ncnc3c2cnn3-c2ccccc2)c2cc(O)c(O)cc2o1 [compound (2)] | 13 × 10^4 M^−1 |
| Nc1ccc(Oc2nc(Oc3ccc(N)cc3)c(F)c(Oc3ccc(N)cc3)c2F)cc1 [(12)] | 0.2 × 10^4 M^−1 |
| CC(C)(c1ccc(O)cc1)c1cccc(C(C)(C)c2ccc(O)cc2)c1 [(6)] | 2.9 × 10^4 M^−1 |
| Cc1ccc(OCc2nc(CSc3nc(N)cc(N)n3)cs2)cc1 [(16)] | 0.06 × 10^4 M^−1 |
| Cc1cc(C(=O)CSc2nc(N)cc(N)n2)c(C)n1Cc1ccc2c(c1)OCO2 [(17)] | 0.05 × 10^4 M^−1 |

Next, values leading:

| KA × 10^4 (M^−1), coupling/binding constant KA=Kon/Koff | Structure (SMILES) |
| --- | --- |
| 0.4 × 10^4 M^−1 | Oc1ccc(-c2csc(COc3ccccc3)n2)cc1O [(10)] |
| 5.1 × 10^4 M^−1 | O=C(CSc1ncnc2c1cnn2-c1ccccc1)c1ccc(O)c(O)c1 [(3)] |
| 0.96 × 10^4 M^−1 | CN(c1ccc(O)cc1)c1ncc([N+](=O)[O-])c(N(C)c2ccc(O)cc2)n1 [(7)] |
| 0.17 × 10^4 M^−1 | CC(Sc1nnnn1-c1ccc(O)cc1)C(=O)c1ccc(F)c(F)c1 (stereo not shown) [(13)] |
| 0.37 × 10^4 M^−1 | O=C1Sc2c(S(=O)(=O)Nc3ccc(O)cc3)cc(S(=O)(=O)Nc3ccc(O)cc3)c3cccc1c23 [(11)] |
| 0.16 × 10^4 M^−1 | CN(c1ccc(O)cc1)c1nc(S(=O)(=O)c2ccccc2)c(Cl)s1 [(14)] |
| 0.12 × 10^4 M^−1 | Cc1ccc(C(=O)C(C)Sc2nnnn2-c2ccc(O)cc2)cc1 (stereo not shown) [(15)] |
| 4.6 × 10^4 M^−1 | O=C(CSc1nnc(SCc2cccc3ccccc23)s1)c1ccc(O)c(O)c1 [(5)] |
